Counter-ions that a name gives are not always drawn. Like-named read-outs stand apart in the source and are kept apart here.
Columns and labels:
[1] = Adhesion studies (tablet punch surfaces, blends with Avicel PH 101); assay type: physicochemical
Description: Avicel PH 101 and each (S)-amlodipine salt were pre-screened through a 25-mesh sieve to delump the powders prior to blending. […] Approximately 500 mg was weighed into the ½-inch tablet die, a tablet punch was added and 0.2 metric tons of pressure was applied using a Carver press for 2-3 seconds. The tablet was then removed, and the surfaces of the tablet punches (concave, SRC) were washed with mobile phase (1 mL). The wash was then assayed by HPLC. Three measurements were made for each blend.

[2] = Moisture balance (VTI SGA-100 sorption isotherm); assay type: physicochemical; details: equilibrated at 95% RH (sorption range 5% to 95% RH)
Description: Moisture-sorption data were collected on a VTI SGA-100 moisture balance system. […] The sample was not dried prior to analysis. Equilibrium criteria used for analysis were less than 0.0100 weight-percent change in 5 minutes with a maximum equilibration time of 3 hours if the weight criterion was not met. The data were not corrected for the initial moisture content of the sample.

[3] = assay type: physicochemical; details: for pH of saturated solution: DI H2O, ambient temperature
Description: The solution was sampled periodically, filtered using a 0.2 μm PTFE syringe filter and assayed by HPLC.
The sample was filtered through a 0.2 μm filter and assayed by HPLC.

[4] = Hygroscopicity and desolvation studies of crystal forms (XRPD); assay type: physicochemical; details: 31, 75, 84 and 95% relative humidity, approximately one week
Description: Hygroscopicity studies were performed by placing portions of a select form in a 11, 32, 45, 66, 75, 84% or 95% relative humidity (RH) chamber for approximately one to three weeks. Desolvation studies were carried out by heating each form in an 80° C. oven for approximately one week. Interconversion experiments were carried out by making slurries containing two forms in a saturated solvent. The slurries were agitated for approximately seven days at ambient temperature. The insoluble solids were recovered by filtration and analyzed using XRPD.

[5] = TGA, water content and moisture sorption profiles; assay type: physicochemical
Description: Moisture Sorption Isotherms: Moisture sorption isotherms were generated using VTI SGA-100 symmetric vapor sorption analyzer. Samples were not pre-dried. Equilibrium criteria were the lesser of 0.01 wt % change in 5 minutes or 180 minutes at each RH step. Temperature was fixed at 25° C. and the relative humidity steps (25% to 95% to 25%) were in 5% increments. In FIG. 27, adsorption data is shown as a solid line with desorption data connected by a dashed line. Water Content: Water content was determined by coulometric titration using an EM Science Aquastar® C300 Karl Fischer titrator. TGA: Samples were analyzed using Perkin Elmer TGA 7 thermal gravimetric analyzer at a heating rate of 10° C./min.

Solid state stability = assay type: physicochemical; details: 60° C./75% RH
Description: Individual samples were prepared and stored at 25° C./60% RH and 40° C./75% RH. Samples stored at 60° C./75% RH were packaged in uncapped glass vials. All samples were analyzed for assay and impurity by HPLC.

[6] = 5% (S)-Amlodipine salt in Avicel
[7] = 25% (S)-Amlodipine salt in Avicel

CCOC(=O)C1=C(COCCN)NC(C)=C(C(=O)OC)[C@@H]1c1ccccc1Cl [(S)-amlodipine maleate]
Adhesion [1, 6]: 5.8E−07 g (S)-amlodipine/cm^2
Adhesion [1, 7]: 3.9E−06 g (S)-amlodipine/cm^2

CCOC(=O)C1=C(COCCN)NC(C)=C(C(=O)OC)C1c1ccccc1Cl.O=C(O)CC(O)C(=O)O [form D′, (S)-Amlodipine-D-malate]
increase in weight (moisture balance) [2]: 0.3%

O=C(O)[C@H](O)[C@@H](O)C(=O)O [(L)-Tartrate]
Adhesion [1, 6]: 9.3E−07 g (S)-amlodipine/cm^2
Adhesion [1, 7]: 4.9E−06 g (S)-amlodipine/cm^2

(S)-amlodipine L-malate
increase in weight (moisture balance) [2]: 0.5%
pH of saturated solution ([3]; initial salt screen): 4.0
pH of saturated solution ([3]; more recent sample): 3.56
Free Base Concentration (solubility) ([3]; pH 3.56): 6000 µg/mL
Malate Concentration (solubility) ([3]; pH 3.56): 8000 µg/mL
Free Base Concentration (solubility) ([3]; pH 4): 10100 µg/mL
Malate Concentration (solubility) ([3]; pH 4): 13400 µg/mL
crystal form after hygroscopicity study [4]: remained unchanged
Adhesion [1, 6]: 4.9E−07 g (S)-amlodipine/cm^2
Adhesion [1, 7]: 2.6E−06 g (S)-amlodipine/cm^2
adhesion to solid dosage form manufacturing equipment compared to other salts ([1]; blended at typical levels with Avicel): decreased adhesion
Moisture Desorption ([5]; at 25% RH, 25° C.): 0.06 % wt remaining
Moisture Adsorption ([5]; at 95% RH, 25° C.): 0.24 % wt gain
KF water content ([5]; coulometric Karl Fischer): 0.13 % H2O
TGA ([5]; heating rate 10° C./min): 0.14 % wt loss
hygroscopicity ([5]; moisture sorption, TGA and Karl Fischer data): not hygroscopic
time for which solid was fairly stable (Solid state stability): > 2 months

CCOC(=O)C1=C(COCCN)NC(C)=C(C(=O)OC)[C@@H]1c1ccccc1Cl.O=C(O)C(O)C(O)C(=O)O [(S)-amlodipine D-tartrate]
Adhesion [1, 6]: 6.0E−07 g (S)-amlodipine/cm^2
Adhesion [1, 7]: 2.8E−06 g (S)-amlodipine/cm^2

Source: US20060035940A1, “(S)-Amlodipine malate” (Sepracor Inc., priority 2004, published 2006)
